According to BindingDB's records for doi:10.7270/Q2DN43GX (The Scripps Research Institute Molecular Screening Center, 2007):

Molecular target: T1, Protein Rev [8-24] (Human immunodeficiency virus 1, UniProt P05866)
T1 construct: 8-24
Assay: inhibitors of Rev protein–RRE RNA complex – biochemical, protein-RNA interaction, dose response (AID 842)

SMILES | IC50 [µM]
Cc1[nH]n(-c2ccccc2)c(=O)c1N=Nc1ccc(N)cc1 [4-(4-aminophenyl)azo-5-methyl-2-phenyl-4H-pyrazol-3-one] | > 79.4
CC[n+]1c(CC=Nc2ccccc2)oc2ccccc21 [3-Ethyl-2-(2-phenylamino-vinyl)-benzooxazol-3-ium] | 5.66
